Where two headings read alike, the source gives them in different places.
Experiments:
[1] = test system: PluxC-gfp reporter in V. vulnificus; assay: PluxC-gfp reporter in V. vulnificus strains; conditions: Vibrio vulnificus
[2] = test system: PluxC-gfp reporter in V. coralliilyticus; assay: PluxC-gfp reporter in V. coralliilyticus strains
[3] = test system: PluxC-gfp reporter in V. parahaemolyticus; assay: PluxC-gfp reporter in V. parahaemolyticus strains; conditions: Vibrio parahaemolyticus
[4] = test system: PluxC-gfp reporter in V. campbellii; assay: PluxC-gfp reporter in V. campbellii strains; conditions: Vibrio campbellii
V. campbellii LuxR [5] = target: T1, V. campbellii LuxR (Vibrio harveyi, UniProt P21308); assay: E. coli dual-color bioassay (pKM699 LuxR, pJV064 reporter); assay type: cell-based; conditions: for Inhibition of LuxR in the E. coli bioassay (in words): GFP and mCherry reporters
T1 construct: expressed in transfected cells; host or cells: E. coli DH10B with pKM699 and reporter pJV064
From the text: Previously, we developed a bioassay that consists of a dual-color fluorescent reporter plasmid that reports both LuxR activities: the luxCDABE promoter is activated by LuxR and drives expression of gfp, and the VIBHAR_05222 promoter is repressed by LuxR and drives expression of mCherry (van Kessel et al., 2013b) (FIG. 2A). We used this reporter plasmid in an E. coli strain that also contains a plasmid expressing LuxR from its native promoter.
A bioassay was developed to monitor LuxR function that consists of a dual-color reporter plasmid (pJV064) that reports both activities: the luxCDABE promoter is activated by LuxR and drives expression of gfp, and the 05222 promoter is repressed by LuxR and drives expression of mCherry (van Kessel, Ulrich et al. 2013). This reporter plasmid was used in an E. coli strain that also contains a plasmid (pKM699) expressing LuxR from its native promoter. E. coli cultures containing these two plasmids were grown at 30° C. in LB medium with chloramphenicol (10 μg/ml) and tetracycline (10 μg/ml) to select for the two plasmids. Compounds were added to the cultures at a range of concentrations, and the cultures were incubated for 16 hours shaking at 30° C.
The dual-promoter fluorescence reporter assays were performed using E. coli strain DH10B containing two plasmids: 1) plasmid pJV064 containing the PluxC fused to GFP and P05222fused to mCherry to assess LuxR transcriptional regulation, and 2) plasmid pKM699 expressing V. campbellii luxR under control of its native promoter or empty vector pLAFR2.

Vibrio strains = assay: luxCDABE reporter across five Vibrio species; conditions: each Vibrio strain except V. cholerae
V. campbellii LuxR [6] = target: T1, V. campbellii LuxR; assay: qRT-PCR and western blots in wild-type V. campbellii; assay type: cell-based
From the text: The Qstatin-treated regulon overlapped with the SmcR regulon by more than 50%, with similar gene expression fold-changes. […] This is important to note because LuxR and HapR proteins are known to autorepress their own expression. To test the effects of adding inhibitors to V. campbellii LuxR, we added 10A, 10B, and 10C to wild-type V. campbellii and used qRT-PCR and western blots to examine the effects on luxR transcript and protein levels. We also examined the transcript levels for luxC and 05222 genes that are directly activated or repressed by LuxR, respectively.
All PCR reactions were performed using Phusion HF polymerase (NEB). T4 polynucleotide kinase (T4 PNK) used in EMSAs and all other enzymes were purchased from NEB and used according to manufacturer's instructions. Site-directed mutagenesis for construction of plasmids expressing mutant proteins was carried out using the Agilent QuikChange II XL Site-Directed Mutagenesis Kit. All oligonucleotides were purchased from Integrated DNA Technologies (IDT).ALL plasmid constructs were confirmed by DNA sequencing (Eurofins). Cloning details for plasmids are available upon request. Western blot analysis was performed as previously described (van Kessel et al., 2013b), except that new anti-LuxR antibodies were generated through Cocalico against purified LuxR protein. In addition, the western blots were probed with anti-RpoB (Neoclone).
Then cells were induced with 50 μM IPTG and grown under the same conditions until cells reached an OD600 of approximately 1, at which 5 mL of cells were collected by centrifugation and frozen in liquid N2. RNA was extracted using a Trizol/chloroform extraction protocol previously described (Rutherford et al., 2011). Quantitative real-time PCR (qRT-PCR) was performed as previously described (Chaparian et al., 2016). Samples were normalized to the internal standard hfq gene. The ΔΔCT values were used to analyze data from three independent biological replicates. Symbols on graphs represent the mean values and error bars represent the standard deviations. All statistical analysis was performed with functions from GraphPad Prism version 8.

[7] = ATCC27562, read-out: Inhibition (IC50) of the PluxC-gfp reporter, Vvul ATCC 27562
[8] = read-out: Inhibition (IC50) of the PluxC-gfp reporter, Vvul CMPC6
[9] = read-out: Inhibition (IC50) of the PluxC-gfp reporter, Vvul YJ016
[10] = read-out: Inhibition (IC50) of the PluxC-gfp reporter, Vcoral OCN 008
[11] = read-out: Inhibition (IC50) of the PluxC-gfp reporter, Vcoral OCN 014
[12] = read-out: Inhibition (IC50) of the PluxC-gfp reporter, Vpara 12-297/B
[13] = read-out: Inhibition (IC50) of the PluxC-gfp reporter, Vpara D4
[14] = read-out: Inhibition (IC50) of the PluxC-gfp reporter, Vpara RIMD 2210633
[15] = ATCC25920, read-out: Inhibition (IC50) of the PluxC-gfp reporter, Vcamp ATCC 25920
[16] = read-out: Inhibition (IC50) of the PluxC-gfp reporter, Vcamp BB120
[17] = read-out: Inhibition (IC50) of the PluxC-gfp reporter, Vcamp HY01
[18] = read-out: IC50 in the bioassay (approximate)

T1 sequence (P21308 whole entry): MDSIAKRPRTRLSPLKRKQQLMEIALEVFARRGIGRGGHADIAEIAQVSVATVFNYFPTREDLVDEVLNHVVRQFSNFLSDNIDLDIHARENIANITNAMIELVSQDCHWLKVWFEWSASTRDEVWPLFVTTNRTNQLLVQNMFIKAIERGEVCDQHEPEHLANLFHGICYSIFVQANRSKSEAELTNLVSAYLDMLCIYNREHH

Row | SMILES | IC50 [1, 7] | IC50 [1, 8] | IC50 [1, 9] | IC50 [2, 10] | IC50 [2, 11] | IC50 [3, 12] | IC50 [3, 13] | IC50 [3, 14] | IC50 [4, 15] | IC50 [4, 16] | IC50 [4, 17] | IC50 (V. campbellii LuxR [5]; [18]) | Inhibition of LuxR in the E. coli bioassay (in words) (V. campbellii LuxR [5]) | IC50 (V. campbellii LuxR [5]; Table 2, titration, 16 hours, read-out: Inhibition (IC50) of GFP production by LuxR in E. coli bioassay) | Effect in V. coralliilyticus OCN008 (in words) ([2]; OCN008) | IC50 values lower than Qstatin (Vibrio strains) | luxC transcripts (V. campbellii LuxR [6]; qRT-PCR, to levels in a ΔluxR strain) | 05222 transcripts (V. campbellii LuxR [6]; qRT-PCR, wild-type cultures) | LuxR protein level (V. campbellii LuxR [6]; western blot, wild-type V. campbellii)
1 | O=S(=O)(c1cccs1)n1cccn1 [Compound 1B, 1-(thiophen-2-ylsulfonyl)-1H-pyrazole] | 3.4 µM | 29.6 µM | 6.5 µM | 55.7 µM | 101 µM | 11.8 µM | 18.9 µM | 15.9 µM | 12.8 µM | 52.6 µM | 23.2 µM | – | – | – | – | – | – | – | –
2 | O=S(=O)(c1ccc(Cl)s1)n1cccc1 [Compound 3C, 1-((5-chlorothiophen-2-yl)sulfonyl)-1H-pyrrole] | 0.5 µM | – | – | 1.3 µM | – | – | – | 2 µM | – | 8.3 µM | – | – | – | – | – | – | – | – | –
3 | Cc1ccn(S(=O)(=O)c2ccc(Cl)s2)n1 [Compound 8C, 1-((5-chlorothiophen-2-yl)sulfonyl)-3-methyl-1H-pyrazole] | 0.7 µM | 4.6 µM | 1 µM | 2.7 µM | 8.4 µM | 3.3 µM | 4.5 µM | 3.8 µM | 1.5 µM | 6.7 µM | 2.7 µM | 10 to 20 µM | – | – | – | – | – | – | –
4 | O=S(=O)(c1ccc(Br)s1)N1CCCC1 [P0074 H04, 1-((5-bromothiophen-2-yl)sulfonyl)pyrrolidine] | – | – | – | – | – | – | – | – | – | – | – | ~35 µM | consistent inhibition | – | – | – | – | – | –
5 | O=S(=O)(c1ccccc1)n1cccn1 [Compound 1E, 1-(phenylsulfonyl)-1H-pyrazole] | 2.7 µM | 22 µM | 4.6 µM | 49.2 µM | 66.2 µM | 8.1 µM | 12.7 µM | 11 µM | 8.4 µM | 51.4 µM | 14.8 µM | – | – | – | – | – | – | – | –
6 | Cc1ccn(S(=O)(=O)c2cccs2)n1 [Compound 8B, 3-methyl-1-(thiophen-2-ylsulfonyl)-1H-pyrazole] | 1.9 µM | 11.5 µM | 3 µM | 26.1 µM | 26.8 µM | 6.7 µM | 8.4 µM | 7.3 µM | 3.9 µM | 32.4 µM | 8.7 µM | – | does not show inhibition | – | – | – | – | – | –
7 | O=S(=O)(c1ccc(Br)s1)n1cccc1 [Compound 3A, 1-((5-bromothiophen-2-yl)sulfonyl)-1H-pyrrole] | 0.7 µM | 6.1 µM | 1.3 µM | 23.1 µM | 22.6 µM | 3 µM | 2.8 µM | 2.6 µM | – | 15 µM | 1.6 µM | – | – | – | – | – | – | – | –
8 | FC(F)(F)C1CN(c2nc(-c3ccccc3)cs2)CCO1 (stereo not shown) [P2065 E16, 4-(4-phenylthiazol-2-yl)-2-(trifluoromethyl)morpholine] | – | – | – | – | – | – | – | – | – | – | – | – | only a minor inhibition | 5.3 µM | – | – | – | – | –
9 | O=S(=O)(c1ccc(Cl)s1)n1cccn1 [Compound 1C, 1-((5-chlorothiophen-2-yl)sulfonyl)-1H-pyrazole] | 0.4 µM | 2.3 µM | 0.8 µM | 9.1 µM | 9.4 µM | 1.6 µM | 12.5 µM | 1.7 µM | 0.5 µM | 3.3 µM | 1 µM | – | – | – | – | – | – | – | –
10 | Cc1ccn(S(=O)(=O)c2ccc(Br)s2)n1 [Compound 8A, 1-((5-bromothiophen-2-yl)sulfonyl)-3-methyl-1H-pyrazole] | 0.4 µM | 2.1 µM | 0.5 µM | 4.2 µM | 9.6 µM | 2.1 µM | 2.4 µM | 2 µM | 0.7 µM | 3.8 µM | 1.2 µM | 10 to 20 µM | – | – | – | – | – | – | –
11 | O=C(c1ccc(COc2ccc(Cl)cc2)o1)N1CCN(Cc2ccc3c(c2)OCO3)CC1 [P0053 I18, (4-(benzo[d][1,3]dioxol-5-ylmethyl)piperazin-1-yl)(5-((4-chlorophenoxy)methyl)furan-2-yl)methanone] | 0.7 µM | 4.9 µM | 3.2 µM | 18.9 µM | 10.4 µM | 8.1 µM | 6.4 µM | 2.8 µM | 1.8 µM | 2 µM | 4.3 µM | – | – | – | – | – | – | – | –
12 | O=S(=O)(c1cccs1)n1cccc1 [Compound 3B, 1-(thiophen-2-ylsulfonyl)-1H-pyrrole] | 0.9 µM | 5.9 µM | 1.5 µM | 39.2 µM | 95.1 µM | 4 µM | 3.5 µM | 2.5 µM | 2 µM | 18.9 µM | 3.6 µM | – | – | – | most noticeable effect | – | – | – | –
13 | O=S(=O)(c1ccc(Br)s1)n1ccc(-c2ccccc2)n1 [Compound 10A, 1-((5-bromothiophen-2-yl)sulfonyl)-3-phenyl-1H-pyrazole] | 0.00144 µM | 0.0339 µM | 0.00584 µM | 2.09 µM | 2.01 µM | 1.03 µM | 0.87 µM | 0.63 µM | 0.05 µM | 0.58 µM | 0.4 µM | 1 to 2 µM | most potent | – | – | ~10 fold | significantly decreased | significantly increased | visible increase

Source: patent publication US20230257373A1, “QUORUM SENSING INHIBITORS AND METHODS OF USE” (priority 2020, published 2023)
